# Read-outs that look alike come from different tables or passages of the source.
# How the values were obtained:
# [1] = Lipophilicity coefficient RM0 by reversed phase thin layer chromatography; assay type: physicochemical; details: RP-18 TLC, methanol / 100 mM phosphate buffer pH = 7.4
# Procedure: Confirmation of the identity and purity of the obtained compounds consisted in the registration and interpretation of ^1H NMR and ^13C NMR spectra (the spectra were recorded using an ECZR 500 MHz (JEOL) series FT-NMR spectrophotometer), as well as the registration and interpretation of LC-MS spectra (the spectra were recorded using Acquita UPLC system (Waters) coupled with a Waters TQD mass spectrometer). The melting point was measured using the open capillary method in the IA9300 device (Electrothermal). The lipophilicity coefficient RM0 was determined by reversed phase thin layer chromatography. In the study, aluminum plates 20x20 cm covered with modified silica gel RP-18 F254 (Merck) were used as the solid phase. The mobile phase consisted of solutions of methanol and 100 mM phosphate buffer (pH = 7.4), characterized by a variable methanol content ranging from 95 to 65% (v/v). The tested compounds were dissolved in methanol to obtain solutions with a concentration of 1 mg/mL. Then, 5 µL of the solutions prepared in this way were transferred to the starting line on aluminum plates, which were then placed in chromatographic chambers previously saturated with mobile phase vapors for at least 1 hour. All activities, including the development of chromatograms, were carried out at room temperature. After developing the chromatograms to approximately 1-2 cm from the end of the plate, the plates were dried and then the distance traveled by the tested compounds was visualized under UV light (λ = 254 nm). The experiment was performed in duplicate for the specified conditions. For all samples, Rf was calculated according to the formula Rf = a/b, where a - the distance traveled by the tested compound, b - the distance traveled by the mobile phase. Then, the RM parameter was calculated for all samples according to the formula RM = log(1/Rf - 1), obtaining a linear relationship between the RM values and the methanol concentration in the mobile phase. The logP coefficient was also calculated using the following computer programs: ACD/ChemSketch 2020.1.2 and ChemDraw 20.0.0.41. Table 2. The physicochemical data of the compounds are presented below
# tyrosinase from mushroom = assay: Inhibition of commercial mushroom tyrosinase (L-DOPA or L-tyrosine substrate); assay type: biochemical
# Procedure: The following substrates were used for the enzymatic reaction: L-tyrosine and L-3,4-dihyroxyphenylalanine (L-DOPA). Both substrates were used in independent experiments. According to the literature, the use of L-DOPA enables the assessment of tyrosinase diphenolase activity, and L-tyrosine - the tyrosinase monophenolase activity. The determinations were performed in 96-well plates, in each well there was placed: 170 µL or 127.5 µL of 50 mM phosphate buffer (pH = 6.8) with tyrosinase (1U/well or 3U/well) and 10 µL of a solution of the tested compound in DMSO (the final concentration in the well was 500 µM, 250 µM or 125 µM). The negative control used 10 µL of pure solvent (DMSO). To initiate the reaction, an appropriate substrate was added: L-tyrosine (62.5 µL of solution in phosphate buffer) or L-DOPA (20 µL of solution in phosphate buffer). After a 25-minute incubation, the absorbance was measured at 475 nm using a microplate reader. The percentage of inhibition of tyrosinase activity was calculated using the formula: [(AC -AT)/AC] × 100, where AC - is the absorbance of the negative control, AT - is the absorbance of the sample containing the tested compound.
# [2] = tested on: B16-F10 murine melanoma cell line; assay: Cytotoxicity in B16-F10 cells (MTT); assay type: cell-based; details: 48 h
# Procedure: In order to determine safe doses of compounds for testing the inhibition of melanogenesis in a murine melanoma cell line, cytotoxicity tests were performed. Cytotoxicity was determined by the colorimetric method using MTT ([3-(4,5-dimethyl-2-thiazolyl)-2,5-diphenyl-2H-tetrazolium bromide, Sigma M5655). For this purpose, cells were transferred to 96-well plates in an amount of 5000/well. After 24 h of culture in an incubator in F 10-Ham medium with 1% FBS, the tested compounds at various concentrations were added to the wells together with fresh medium. DMSO was added to the medium in a negative control. The MTT test was performed after further culture for 48 h. Then the medium was removed and the formed formazan crystals were dissolved in DMSO. The absorbance was measured at 570 nm in a plate reader and the result was compared to the control (DMSO), which was 100%. The percentage of viability was calculated using the formula: [AT/AC^∗100], where AT is the absorbance of the test sample, AC - absorbance of the control sample. Table 3. Results of inhibiting the activity of monophenolase […] tyrosinase and cytotoxicity testing in B16F10 cells for the described compounds.
# S. typhimurium TA98 = assay: Ames microplate test, TA98; assay type: cell-based, Salmonella typhimurium; details: without S9;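 note: reference level is the mean solvent-control yellow wells plus SD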
# Procedure: (§1) Bacteria were grown overnight in growth medium.
# (§2) Table 9. Ames microplate test results.
# S. typhimurium TA100 = assay: Ames microplate test, TA100; assay type: cell-based, Salmonella typhimurium; details: without S9;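 note: reference level is the mean solvent-control yellow wells plus SD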
# Procedure: as §1, §2
# S. typhimurium TA1537 = assay: Ames microplate test, TA1537; assay type: cell-based, Salmonella typhimurium; details: without S9;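 note: reference level is the mean solvent-control yellow wells plus SD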
# Procedure: as §1, §2
# [3] = tested on: Chinese hamster ovary cell line (CHO-K1); assay: Cytotoxicity in CHO-K1 cells (MTT) before the micronucleus test; assay type: cell-based; details: 24 hours
# Procedure: The assay was performed using a Chinese hamster ovary cell line (CHO-K1) purchased from the American Type Culture Collection (ATCC). The cells were cultured in F-12K medium with the addition of 10% fetal bovine serum (FBS) and antibiotics (streptomycin/penicillin) in an incubator at 37 °C and 5% CO2 concentration). Before the actual micronucleus test, a cytotoxicity assessment was performed to ensure that the actual test was performed only at safe concentrations. For this purpose, cells were transferred to 96-well plates and incubated with the tested compounds for 24 hours. After this time, the MTT test was performed and cell viability was assessed in comparison to the control group (cells cultured with DMSO at the same concentration as in the case of the tested samples).
# [4] = tested on: Chinese hamster ovary cell line (CHO-K1); assay: Genotoxicity in the micronucleus test in CHO-K1 cells; assay type: cell-based
# S. typhimurium TA1535 = assay: Ames microplate test, TA1535; details: without S9;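 note: bacteria exposed to compound 90 min at 37 °C, then kept 48 h at 37 °C with indicator medium in 384-well plates, scoring wells that turned yellow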
# E. coli WP2 = assay: Ames microplate test, E. coli WP2; details: without S9;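 note: bacteria treated 90 min at 37 °C in 24-well plates, then indicator medium dispensed to 384-well plates and incubated 48 h before yellow-well counting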
# Procedure: The study used the Ames microplate test (Ames MPF™ Penta 2 by Xenometrix, Allschwil, Switzerland). Growth medium, exposure medium, indicator medium, positive controls, hepatic microsomal fraction, NADP, glucose-6-phosphate, Salmonella typhimurium and Escherichia coli strains were components of the purchased experimental kit. Bacteria were grown overnight in growth medium. They were then exposed to the test compound at the appropriate concentration in exposure medium without or with the rat microsomal fraction S9 in 24-well plates for 90 min at 37 °C with shaking. Then, indicator medium was added to the wells and pipetted into 384-well plates, which were incubated for 48 hours at 37 °C without shaking. Results were assessed by counting the wells in which the medium turned yellow for each experimental condition.
smiles,measurement,setting,value
"CC(CO)NC(=O)/C=C/c1ccc(Cl)cc1 (centres unmarked) [Compound A-102, (2E)-3-(4-chlorophenyl)-N-(1-hydroxypropan-2-yl)prop-2-enamide]",RM0,[1],2.12
same,Tyrosinase inhibition with L-DOPA [%],tyrosinase from mushroom; L-DOPA,53.02±1.99% (500 µM)
same,IC50,"tyrosinase from mushroom; L-DOPA, read-out: Tyrosinase inhibition with L-DOPA, IC50",440 µM
same,Tyrosinase inhibition with L-tyrosine [%],tyrosinase from mushroom; L-tyrosine,75.45±1.80% (500 µM)
same,IC50,"tyrosinase from mushroom; L-tyrosine, read-out: Tyrosinase inhibition with L-tyrosine, IC50",164 µM
same,Cytotoxicity study in B16F10 cells % viability,[2]; 150 µM,80.6%
same,Cytotoxicity study in B16F10 cells % viability,[2]; 200 µM,83.5%
same,Cytotoxicity study in B16F10 cells % viability,[2]; 250 µM,75.7%
same,Increase in the number of yellow wells compared to the reference level,S. typhimurium TA98; 0.5 mM,0.24
same,Increase in the number of yellow wells compared to the reference level,S. typhimurium TA98; 1.0 mM,0.24
same,Increase in the number of yellow wells compared to the reference level,S. typhimurium TA98; 2.0 mM,0.35
same,Increase in the number of yellow wells compared to the reference level,S. typhimurium TA100; 0.5 mM,1.08
same,Increase in the number of yellow wells compared to the reference level,S. typhimurium TA100; 1.0 mM,0.75
same,Increase in the number of yellow wells compared to the reference level,S. typhimurium TA100; 2.0 mM,0.92
same,Increase in the number of yellow wells compared to the reference level,S. typhimurium TA1537; 0.5 mM,0.33
same,Increase in the number of yellow wells compared to the reference level,S. typhimurium TA1537; 1.0 mM,0.00
same,Increase in the number of yellow wells compared to the reference level,S. typhimurium TA1537; 2.0 mM,1.00
same,% Viability [mean],[3]; 100 µM,84.7%
same,% Viability [mean],[3]; 150 µM,69.9%
same,% Viability [mean],[3]; 200 µM,87.2%
same,DB (dicentric bridges in 1000 binucleate cells),[4]; 100 µM,4.0 ± 2.8
same,MN (number of micronuclei in 1000 binucleate cells),[4]; 100 µM,10.5 ± 2.1
same,NB (nuclear buds in 1000 binucleate cells),[4]; 100 µM,5.5 ± 2.1
same,NDI (nuclear division index),[4]; 100 µM,1.54
same,DB (dicentric bridges in 1000 binucleate cells),[4]; 150 µM,2.5 ± 2.1
same,MN (number of micronuclei in 1000 binucleate cells),[4]; 150 µM,6.5 ± 2.1
same,NB (nuclear buds in 1000 binucleate cells),[4]; 150 µM,6.5 ± 2.1
same,NDI (nuclear division index),[4]; 150 µM,1.54
same,DB (dicentric bridges in 1000 binucleate cells),[4]; 200 µM,3.0 ± 1.4
same,MN (number of micronuclei in 1000 binucleate cells),[4]; 200 µM,8.5 ± 0.7
same,NB (nuclear buds in 1000 binucleate cells),[4]; 200 µM,4.0 ± 1.4
same,NDI (nuclear division index),[4]; 200 µM,1.60
same,Increase in the number of yellow wells compared to the reference level,S. typhimurium TA1535; 0.5 mM,0.55
same,Increase in the number of yellow wells compared to the reference level,S. typhimurium TA1535; 1.0 mM,0.14
same,Increase in the number of yellow wells compared to the reference level,S. typhimurium TA1535; 2.0 mM,0.89
same,Increase in the number of yellow wells compared to the reference level,E. coli WP2; 0.5 mM,0.48
same,Increase in the number of yellow wells compared to the reference level,E. coli WP2; 1.0 mM,1.03
same,Increase in the number of yellow wells compared to the reference level,E. coli WP2; 2.0 mM,0.79
